Like-named read-outs stand apart in the source and are kept apart here.
Columns and labels:
SARS-CoV-2 [1] = type: cell-based
SARS-CoV-2 [2] = type: cell-based; settings: A549/ACE2 cells
[3] = Vero E6 cells, tested range 80 nM to 10 μM, two repeats

Molecule: O=C[C@H](C[C@@H]1CCNC1=O)NC(=O)[C@H](CC1CCCCC1)NC(=O)c1cc2ccccc2[nH]1 [11a, reference compound]
- concentration at which SARS-CoV-2-induced CPE was completely abolished (SARS-CoV-2 [1]; [3]): 10 µM

Molecule: O=C[C@H](C[C@@H]1CCNC1=O)NC(=O)[C@H](Cc1ccccc1)NC(=O)/C=C/c1ccc(Cl)cc1F [MPI2]
- concentration at which SARS-CoV-2-induced CPE was completely abolished (SARS-CoV-2 [1]; [3]): 10 µM

Molecule: CC(C)C[C@H](NC(=O)[C@@H](NC(=O)OCc1ccccc1)C(C)C)C(=O)N[C@H](C=O)C[C@@H]1CCNC1=O [MPI3]
- complete prevention of CPE (in words) (SARS-CoV-2 [1]; Vero E6 cells, tested range 80 nM to 10 μM): not able to completely prevent CPE at all tested concentrations

Molecule: CC(C)[C@H](NC(=O)OCc1ccccc1)C(=O)N[C@@H](CC1CCCCC1)C(=O)N[C@H](C=O)C[C@@H]1CCNC1=O [MPI5]
- concentration at which SARS-CoV-2-induced CPE was completely abolished (SARS-CoV-2 [1]; [3]): 5 µM
- concentration for complete prevention of SARS-CoV-2-induced CPE (SARS-CoV-2 [2]; as stated in abstract): 0.16 to 0.31 µM
- concentration for complete abolition of CPE (SARS-CoV-2 [2]; tested range 80 nM to 10 μM): 160 to 310 nM

Molecule: CC(OC(C)(C)C)[C@H](NC(=O)OCc1ccccc1)C(=O)N[C@@H](Cc1ccccc1)C(=O)N[C@H](C=O)C[C@@H]1CCNC1=O (stereo partly drawn) [MPI7]
- concentration at which SARS-CoV-2-induced CPE was completely abolished (SARS-CoV-2 [1]; [3]): 2.5 to 5 µM
- complete abolition of CPE / potency (in words) (SARS-CoV-2 [2]; tested range 80 nM to 10 μM): not able to completely abolish CPE at all tested conditions

Molecule: GC376 [reference compound]
- concentration at which SARS-CoV-2-induced CPE was completely abolished (SARS-CoV-2 [1]): 10 µM
